Five compounds from patent US10375956B2, “Herbicidally active 2-(substituted-phenyl)-cyclopentane-1,3-dione compounds and derivatives thereof” (Syngenta Limited, priority 2013, dated 2019) can be followed below.

Where two headings read alike, the source gives them in different places.

What all share (assay type): in vivo
One assay relates to Avena fatua (AVEFA). As to the kind of experiment: Test 2 glasshouse assay (IF50 formulation, X-77), post-emergence herbicidal activity. To be noted: 360 h, 15 DAA, visual score, read-out: Post-emergence herbicidal activity (percentage phytotoxicity) AVEFA; for pest or weed control at 250 g/ha: application rate 250 g/ha. The protocol:
(§1) Seeds of a variety of monocotyledonous and dicotyledonous test plants are sown in standard soil in pots. The plants are cultivated for one day (for pre-emergence) or for about 12 days (for post-emergence) under controlled conditions in a glasshouse (warm climate species at 24/18° C., cool climate species at 20/16° C., both at day/night; 16 hours light; 65% humidity).
(§2) An “instant formulation”, known as the “IF50”, containing 50 g/liter (i.e. 5% w/v) of the “technical” (i.e. unformulated) active ingredient is prepared by dissolving the active ingredient in a mixture of organic solvents and emulsifier, details of which are provided in the Table below. This IF50 is then mixed with a small, variable amount of acetone to aid dissolution, before addition of a 0.2% v/v aqueous solution of the adjuvant X-77 (which is a mixture of alkyl aryl polyoxyethylene glycols and free fatty acids in isopropanol, CAS Registry number 11097-66-8), as the aqueous diluent, to form an aqueous spray solution which contains a predetermined concentration of the active ingredient (which varies depending on the application rate of the active ingredient to the plants) and 0.2% v/v of the adjuvant X-77. This aqueous spray solution is then sprayed onto the plants, after one day's cultivation (for pre-emergence), or after about 12 days' cultivation (range=10-13 days) (for post-emergence).
(§3) The test plants are then grown on, in a glasshouse (greenhouse) under controlled conditions (warm climate species at 24/18° C., cool climate species at 20/16° C., both at day/night; 16 hours light; 65% humidity) and are watered twice daily. 15 days after application of the test herbicide (15DAA) (for post-emergence), and 20 days after application of the test herbicide (20DAA) (for pre-emergence), the test plants are evaluated visually, and an assessed percentage phytotoxicity score is given for each herbicidal application on each plant species (with 100%=total damage to plant; 0%=no damage to plant).
(§4) Cool climate (“cool season”) grassy monocotyledonous weeds: Alopecurus myosuroides (ALOMY), Avena fatua (AVEFA), Lolium perenne (LOLPE).

In assay [1] the test system is Alopecurus myosuroides (ALOMY). The assay is described as above. The conditions noted are these: 360 h, 15 DAA, visual score, read-out: Post-emergence herbicidal activity (percentage phytotoxicity) ALOMY; for pest or weed control at 250 g/ha: application rate 250 g/ha. The protocol:
as §1, §2, §3, §4

A further assay relates to Lolium perenne (LOLPE). Described as above. The conditions noted are these: 360 h, 15 DAA, visual score, read-out: Post-emergence herbicidal activity (percentage phytotoxicity) LOLPE; for pest or weed control at 250 g/ha: application rate 250 g/ha. The protocol: as §1, §2, §3, §4
Assay [2] deals with Triticum aestivum (TRZAW, winter wheat). Described as above. To be noted: 360 h, 15 DAA, visual score, read-out: Post-emergence herbicidal activity (percentage phytotoxicity) TRZAW; for plant injury at 250 g/ha: application rate 250 g/ha. The method, then:
as §1, §2, §3
(§5) Cool climate crop plants: Triticum aestivum (TRZAW, winter wheat), Brassica napus (BRSNN, rape, also called oilseed rape or rapeseed), Beta vulgaris (BEAVA, sugarbeet). Warm climate crop plants: Glycine max (GLXMA, soybean).

In assay [3] the test system is Beta vulgaris (BEAVA, sugarbeet). The description is as above. The conditions noted are these: 360 h, 15 DAA, visual score, read-out: Post-emergence herbicidal activity (percentage phytotoxicity) BEAVA; for plant injury at 250 g/ha: application rate 250 g/ha. The protocol:
as §1, §2, §3, §5

The subject of assay [4] is Brassica napus (BRSNN, rape). The description is as above. The conditions noted are these: 360 h, 15 DAA, visual score, read-out: Post-emergence herbicidal activity (percentage phytotoxicity) BRSNN; for plant injury at 250 g/ha: application rate 250 g/ha. The protocol:
as §1, §2, §3, §5

For assay [5], the system named is Glycine max (GLXMA, soybean). Described as above. The conditions noted are these: 360 h, 15 DAA, visual score, read-out: Post-emergence herbicidal activity (percentage phytotoxicity) GLXMA; for plant injury at 250 g/ha: application rate 250 g/ha. The method, then:
as §1, §2, §3, §5

Assay [6] deals with Echinochloa crus-galli (ECHCG). As to the kind of experiment: Test 1 glasshouse assay, post-emergence herbicidal activity. To be noted: 312 h, after 13 days, read-out: Percentage phytotoxicity ECHCG. The protocol: (§6) Seeds of a variety of test species are sown in standard soil in pots. After cultivation for one day (pre-emergence) or after 8 days cultivation (post-emergence) under controlled conditions in a glasshouse (at 24/16° C., day/night; 14 hours light; 65% humidity), the plants are sprayed with an aqueous spray solution derived from the formulation of the “technical” (i.e. unformulated) active ingredient in acetone/water (50:50) solution containing 0.5% Tween 20 (polyoxyethylene sorbitan monolaurate, CAS Registry Number 9005-64-5). The test plants are then grown on under controlled conditions in a glasshouse (at 24/16° C., day/night; 14 hours light; 65% humidity) and watered twice daily. After 13 days for pre- or post-emergence, the test is evaluated visually, and an assessed percentage phytotoxicity score is given for each herbicidal application on each plant species (where 100%=total damage to plant; 0%=no damage to plant).
(§7) Test plants include the following: Abutilon theophrasti (ABUTH) and Amaranthus retroflexus (AMARE); these are all dicotyledonous (broadleaved) weeds. Setaria faberi (SETFA), Alopecurus myosuroides (ALOMY), and Echinochloa crus-galli (ECHCG); these are all grassy monocotyledonous weeds. Also: Zea mays (ZEAMX, corn/maize), which can be a grassy weed (“volunteer” corn) in some circumstances.
(§8) Lolium perenne (LOLPE), Alopecurus myosuroides (ALOMY), Echinochloa crus-galli (ECHCG), and Avena fatua (AVEFA); these are all grassy monocotyledonous weeds. Cool climate crop plant: Triticum aestivum (TRZAW, winter wheat).

For assay [7], the system named is Alopecurus myosuroides (ALOMY). The assay is described as above. The conditions noted are these: 312 h, after 13 days, read-out: Percentage phytotoxicity ALOMY. The method, then:
as §6, §7, §8

Assay [8] has as its system Digitaria sanguinalis (DIGSA). As to the kind of experiment: Test 2 glasshouse assay (IF50 formulation, X-77), pre-emergence herbicidal activity. To be noted: 480 h, 250 g/ha, 20DAA, read-out: Percentage phytotoxicity DIGSA. The method, then: as §1, §2, §3
(§9) Warm climate (“warm season”) grassy monocotyledonous weeds: Setaria faberi (SETFA), Panicum miliaceum (PANMI), Sorghum vulgare Pers. (SORVU) (or Sorghum bicolor (L) Moench ssp. Bicolor), Digitaria sanguinalis (DIGSA), Echinochloa crus-galli (ECHCG), and Brachiaria plantaginea (BRAPL).

The test system of assay [9] is Sorghum vulgare Pers. (SORVU). The description is as above. The conditions noted are these: Sorghum bicolor, 480 h, 250 g/ha, 20DAA, read-out: Percentage phytotoxicity SORVU. The protocol: as §1, §2, §3, §9
The mark [10] stands for this setting: post-emergence (Example 1B Table 1).
The mark [11] stands for this setting: post-emergence (Example 1B Table 2).

As for `C#CCC1CC(=O)C(c2cc(-c3ncc(Cl)cn3)ccc2C)C1=O` (stereo not drawn) [Compound A19], the pest or weed control at 250 g/ha in the assay with Avena fatua (AVEFA) came out at 10%; in assay [1] it was 40%; in the assay on Lolium perenne (LOLPE), 10%; in assay [6] (setting [10]) it was 90%; in [7] (setting [10]) it was 60%. The plant injury at 250 g/ha in assay [2] turned out to be 30%; in [3], 0%; in assay [4], 10%; in [5], 20%. For the same compound, the pest or weed control at 30 g/ha in assay [6] (setting [10]) was 70%; in assay [7] (setting [10]), 10%.
In the case of `C#CCC1CC(=O)C(c2c(C)cc(-c3ncc(Cl)cc3F)cc2C)C1=O` (stereo not drawn) [Compound A3], the pest or weed control at 30 g/ha was found to be 40% in the assay with Avena fatua (AVEFA) (application rate 30 g/ha), 80% in [1] (application rate 30 g/ha) and 30% with Lolium perenne (LOLPE) (application rate 30 g/ha). Further, the pest or weed control at 250 g/ha in the assay with Avena fatua (AVEFA) was determined as 100%; in assay [1] it was 100%; in the assay with Lolium perenne (LOLPE), 90%; in assay [8] it was 90%; in assay [9], 80%; in assay [6] (setting [10]) it was 100%. Moreover, the pest or weed control at 250 g/ha in assay [6] (setting [11]), in assay [7] (setting [10]) and in assay [7] (setting [11]) was 100% in each case. For the same compound, the plant injury at 30 g/ha in assay [2] (application rate 30 g/ha) worked out at 80%; in assay [3] (application rate 30 g/ha) it was 40%; in [4] (application rate 30 g/ha), 40%; in assay [5] (application rate 30 g/ha) it was 20%. Also, the plant injury at 250 g/ha in [2] was 90%; in assay [3] it was 70%; in [4], 70%; in assay [5], 70%. The pest or weed control at 62.5 g/ha in assay [6] (setting [10]), in [6] (setting [11]), in assay [7] (setting [10]) and in [7] (setting [11]) was 100% each time.
As for `C#CCC1CC(=O)C(c2cc(-c3ncc(Cl)cc3F)ccc2C)C1=O` (stereo not drawn) [Compound A18], the pest or weed control at 250 g/ha with Avena fatua (AVEFA) came out at 30%; in assay [1], 30%; with Lolium perenne (LOLPE) it was 10%; in assay [6] (setting [10]), 80%; in [7] (setting [10]), 70%. Also, the plant injury at 250 g/ha in assay [2] amounted to 30%; in assay [3], 50%; in [4] it was 20%; in [5] it was 40%. Besides, the pest or weed control at 30 g/ha came out at 60% in assay [6] (setting [10]) and 10% in [7] (setting [10]).
For `C#CCC1CC(=O)C(c2c(F)cc(-c3ccc(F)cc3)cc2OC)C1=O` (stereo not drawn) [Compound A20, 2-[2-fluoro-4-(4-fluorophenyl)-6-methoxyphenyl]-4-prop-2-ynylcyclopentane-1,3-dione], in assay [6] (setting [10]), the pest or weed control at 30 g/ha stood at 80% and the pest or weed control at 250 g/ha was 100%. Besides, in assay [7] (setting [10]), the pest or weed control at 30 g/ha was found to be 50% and the pest or weed control at 250 g/ha was 100%.
On to `C#CCC1CC(=O)C(c2c(F)cc(-c3ccc(F)cc3F)cc2OC)C1=O` (stereo not drawn) [Compound A21], for which the pest or weed control at 30 g/ha in [6] (setting [10]) worked out at 90%; in [7] (setting [10]), 40%. For the same compound, the pest or weed control at 250 g/ha in assay [6] (setting [10]) was 100%; in [7] (setting [10]), 70%.
